In ChEMBL document CHEMBL1137759, “Design, parallel synthesis, and crystal structures of biphenyl antithrombotics as selective inhibitors of tissue factor FVIIa complex. Part 1: Exploration of S2 pocket pharmacophores” (Bioorg Med Chem, 2009):

Tests used:
[1] = molecular target: Coagulation factor VII/tissue factor (Homo sapiens, UniProt P08709); test: Inhibition of tissue factor/factor 7a; type: protein-complex assay
Plasminogen = Plasminogen (Homo sapiens, UniProt P00747); test: Inhibition of plasmin
Chain of Plasminogen (P00747 97-580 limits assumed): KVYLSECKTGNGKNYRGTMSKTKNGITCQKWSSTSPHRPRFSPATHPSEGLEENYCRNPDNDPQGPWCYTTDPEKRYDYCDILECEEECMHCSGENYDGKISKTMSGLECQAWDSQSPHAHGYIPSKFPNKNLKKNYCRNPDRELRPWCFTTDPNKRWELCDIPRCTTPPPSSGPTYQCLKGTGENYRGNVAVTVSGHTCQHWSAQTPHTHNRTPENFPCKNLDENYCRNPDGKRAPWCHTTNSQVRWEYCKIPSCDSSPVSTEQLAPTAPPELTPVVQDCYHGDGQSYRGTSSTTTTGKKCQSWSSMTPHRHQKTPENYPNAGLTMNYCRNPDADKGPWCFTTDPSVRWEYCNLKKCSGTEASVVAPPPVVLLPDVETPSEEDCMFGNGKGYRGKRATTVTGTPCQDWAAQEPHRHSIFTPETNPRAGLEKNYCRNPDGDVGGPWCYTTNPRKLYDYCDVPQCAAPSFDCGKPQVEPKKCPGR
Chain of Plasminogen (P00747 581-810 limits assumed): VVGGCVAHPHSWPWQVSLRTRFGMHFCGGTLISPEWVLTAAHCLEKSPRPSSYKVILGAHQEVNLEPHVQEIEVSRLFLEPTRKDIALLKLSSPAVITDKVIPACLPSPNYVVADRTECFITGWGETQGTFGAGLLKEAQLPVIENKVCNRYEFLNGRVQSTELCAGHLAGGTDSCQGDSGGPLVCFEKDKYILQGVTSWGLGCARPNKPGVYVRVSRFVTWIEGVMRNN

[2] = Selectivity ratio of IC50 for tissue factor/factor 7a to IC50 for trypsin
Prothrombin = Prothrombin (Homo sapiens, UniProt P00734); test: Inhibition of thrombin
Coagulation factor X = Coagulation factor X (Homo sapiens, UniProt P00742)
Chain of Coagulation factor X (P00742 41-179 limits assumed): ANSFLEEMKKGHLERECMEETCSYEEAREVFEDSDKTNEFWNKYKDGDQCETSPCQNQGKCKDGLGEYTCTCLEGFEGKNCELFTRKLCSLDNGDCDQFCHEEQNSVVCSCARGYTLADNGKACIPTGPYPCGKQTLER
Chain of Coagulation factor X (P00742 235-488 limits assumed): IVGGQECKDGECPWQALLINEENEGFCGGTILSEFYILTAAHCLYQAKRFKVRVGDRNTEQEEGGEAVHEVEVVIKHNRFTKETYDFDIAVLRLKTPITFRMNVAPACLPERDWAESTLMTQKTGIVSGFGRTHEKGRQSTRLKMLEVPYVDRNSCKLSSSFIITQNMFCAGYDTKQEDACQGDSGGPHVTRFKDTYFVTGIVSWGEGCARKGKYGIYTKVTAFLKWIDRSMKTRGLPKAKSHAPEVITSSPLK

Chain of Coagulation factor VII/tissue factor (P08709 61-212 limits assumed): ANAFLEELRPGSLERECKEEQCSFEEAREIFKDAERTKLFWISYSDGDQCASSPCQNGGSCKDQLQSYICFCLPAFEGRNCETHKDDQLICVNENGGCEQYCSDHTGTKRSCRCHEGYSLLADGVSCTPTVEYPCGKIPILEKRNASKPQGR
Chain of Coagulation factor VII/tissue factor (P08709 213-466 limits assumed): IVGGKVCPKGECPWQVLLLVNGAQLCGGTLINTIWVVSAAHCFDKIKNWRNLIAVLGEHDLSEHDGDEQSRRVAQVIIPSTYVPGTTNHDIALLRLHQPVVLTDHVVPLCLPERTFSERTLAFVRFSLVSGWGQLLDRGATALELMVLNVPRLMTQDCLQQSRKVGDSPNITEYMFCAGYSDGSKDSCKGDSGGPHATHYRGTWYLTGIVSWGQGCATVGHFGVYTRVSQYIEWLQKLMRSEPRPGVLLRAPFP
Chain of Coagulation factor VII/tissue factor (P13726 33-295 partner limits assumed): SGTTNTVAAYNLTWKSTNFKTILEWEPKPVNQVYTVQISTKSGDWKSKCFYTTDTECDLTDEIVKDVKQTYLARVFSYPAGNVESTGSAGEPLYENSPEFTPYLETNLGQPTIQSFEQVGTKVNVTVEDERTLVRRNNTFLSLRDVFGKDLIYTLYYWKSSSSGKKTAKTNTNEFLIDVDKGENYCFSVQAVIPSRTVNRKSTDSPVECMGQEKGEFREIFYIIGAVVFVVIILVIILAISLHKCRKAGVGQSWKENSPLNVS

SMILES | IC50 [1] [nM] | IC50 (Plasminogen) [nM] | Ratio IC50 [2] | IC50 (Prothrombin) [nM] | IC50 (Coagulation factor X) [nM]
C/C=C\Cc1ccc(-c2ccc(C(=O)NCC(C)C)cc2C(=O)O)c(C(=O)Nc2ccc(C(=N)N)cc2)c1 | 11 | 684 | 119 | 4880 | 7600
CC(C)CNC(=O)c1ccc(-c2ccc(-c3ccoc3CO)cc2C(=O)Nc2ccc(C(=N)N)cc2)c(C(=O)O)c1 | 8 | 457 | 92.5 | > 50000 | 20
CC(C)CNC(=O)c1ccc(-c2ccc(-c3cocc3CO)cc2C(=O)Nc2ccc(C(=N)N)cc2)c(C(=O)O)c1 | 20 | 554 | 114 | > 50000 | 230
CC(C)CNC(=O)c1ccc(-c2ccc(-c3ccccc3)cc2C(=O)Nc2ccc(C(=N)N)cc2)c(C(=O)O)c1 | 98 |  | 4.3 | 11800 | 350
CC#Cc1ccc(-c2ccc(C(=O)NCC(C)C)cc2C(=O)O)c(C(=O)Nc2ccc(C(=N)N)cc2)c1 | 34 | 127 | 48.8 | 50000 | 5220
CC(C)CNC(=O)c1ccc(-c2ccc(O)cc2C(=O)Nc2ccc(C(=N)N)cc2)c(C(=O)O)c1 | 67 |  | 5.7 | 50000 | 50000
CC(C)CNC(=O)c1ccc(-c2ccc(-c3cccnc3)cc2C(=O)Nc2ccc(C(=N)N)cc2)c(C(=O)O)c1 | 546 |  | 5.5 | 50000 | 36500
C=C(C)c1ccc(-c2ccc(C(=O)NCC(C)C)cc2C(=O)O)c(C(=O)Nc2ccc(C(=N)N)cc2)c1 | 13 | 70 | 40.8 | 17900 | 1170
CC(C)CNC(=O)c1ccc(-c2ccc(-c3ccncc3)cc2C(=O)Nc2ccc(C(=N)N)cc2)c(C(=O)O)c1 | 231 |  | 5.3 | 35400 | 19400
CC(C)CNC(=O)c1ccc(-c2ccc(C#CCO)cc2C(=O)Nc2ccc(C(=N)N)cc2)c(C(=O)O)c1 | 320 |  |  |  | 
CC(C)CNC(=O)c1ccc(-c2ccc(-c3ccsc3C(=O)O)cc2C(=O)Nc2ccc(C(=N)N)cc2)c(C(=O)O)c1 | 190 |  |  |  | 
CC(C)CNC(=O)c1ccc(-c2ccc(-c3cccs3)cc2C(=O)Nc2ccc(C(=N)N)cc2)c(C(=O)O)c1 | 10 |  | 16 | 8020 | 150
CC(C)CNC(=O)c1ccc(-c2ccc(-c3occc3CO)cc2C(=O)Nc2ccc(C(=N)N)cc2)c(C(=O)O)c1 | 24 | 1070 | 32.1 | 50000 | 150
CC(C)CNC(=O)c1ccc(-c2ccc(-c3cscc3CN=[N+]=[N-])cc2C(=O)Nc2ccc(C(=N)N)cc2)c(C(=O)O)c1 | 9 | 242 | 133 | 157000 | 50
C=C(CO)c1ccc(-c2ccc(C(=O)NCC(C)C)cc2C(=O)O)c(C(=O)Nc2ccc(C(=N)N)cc2)c1 | 12 | 810 | 295 | 39700 | 7100
CCc1ccc(-c2ccc(C(=O)NCC(C)C)cc2C(=O)O)c(C(=O)Nc2ccc(C(=N)N)cc2)c1 | 97 | > 5000 | 61.8 | 12300 | 50000
CC(C)CNC(=O)c1ccc(-c2ccc(-c3nccs3)cc2C(=O)Nc2ccc(C(=N)N)cc2)c(C(=O)O)c1 | 104 | 494 | 14.1 | 70400 | 230
CC(C)CNC(=O)c1ccc(-c2ccc(-c3ccco3)cc2C(=O)Nc2ccc(C(=N)N)cc2)c(C(=O)O)c1 | 9 | 163 | 41.4 | 14700 | 1300
CC(C)CNC(=O)c1ccc(-c2ccc(-c3ccsc3)cc2C(=O)Nc2ccc(C(=N)N)cc2)c(C(=O)O)c1 | 10 | 35 | 37.7 | 15000 | 40
CC(C)CNC(=O)c1ccc(-c2ccc(CN=[N+]=[N-])cc2C(=O)Nc2ccc(C(=N)N)cc2)c(C(=O)O)c1 | 60 |  |  |  | 
CC(C)CNC(=O)c1ccc(-c2ccc(-c3ccoc3)cc2C(=O)Nc2ccc(C(=N)N)cc2)c(C(=O)O)c1 | 11 | 252 | 42.6 | 16100 | 120
CC(C)CNC(=O)c1ccc(-c2ccc(-c3cccn3C)cc2C(=O)Nc2ccc(C(=N)N)cc2)c(C(=O)O)c1 | 76 |  | 5.4 | 86900 | 50
COc1ccc(-c2ccc(C(=O)NCC(C)C)cc2C(=O)O)c(C(=O)Nc2ccc(C(=N)N)cc2)c1 | 30 | 14400 | 25.3 | 14900 | 6630

SMILES | IC50 [1] [nM] | IC50 (Plasminogen) [nM] | Ratio IC50 [2] | IC50 (Prothrombin) [nM] | IC50 (Coagulation factor X) [nM]
CC(C)CNC(=O)c1ccc(-c2ccc(C(O)CO)cc2C(=O)Nc2ccc(C(=N)N)cc2)c(C(=O)O)c1 (stereo unspecified) | 1610 |  |  |  | 
C=C(CCO)c1ccc(-c2ccc(C(=O)NCC(C)C)cc2C(=O)O)c(C(=O)Nc2ccc(C(=N)N)cc2)c1 | 29 | 358 | 75.5 | 56200 | 11300
C#Cc1ccc(-c2ccc(C(=O)NCC(C)C)cc2C(=O)O)c(C(=O)Nc2ccc(C(=N)N)cc2)c1 | 25 | 1000 | 115 | 50200 | 8140
C=CCc1ccc(-c2ccc(C(=O)NCC(C)C)cc2C(=O)O)c(C(=O)Nc2ccc(C(=N)N)cc2)c1 | 42 | 2470 | 57.6 | 19200 | 1900
CCCc1ccc(-c2ccc(C(=O)NCC(C)C)cc2C(=O)O)c(C(=O)Nc2ccc(C(=N)N)cc2)c1 | 92 | > 5000 | 450 | 39600 | 46000
CC(C)CNC(=O)c1ccc(-c2ccc(-c3ccc[nH]3)cc2C(=O)Nc2ccc(C(=N)N)cc2)c(C(=O)O)c1 | 14 |  | 30.7 | 19900 | 50
CC(C)CNC(=O)c1ccc(-c2ccc(-c3ccsc3CO)cc2C(=O)Nc2ccc(C(=N)N)cc2)c(C(=O)O)c1 | 36 | 408 | 84.4 | 50000 | 450
CC(C)CNC(=O)c1ccc(-c2ccc(C#CCCO)cc2C(=O)Nc2ccc(C(=N)N)cc2)c(C(=O)O)c1 | 500 |  | 0.8 | 17900 | 59000
CC(C)CNC(=O)c1ccc(-c2ccc(C#CC(C)(C)O)cc2C(=O)Nc2ccc(C(=N)N)cc2)c(C(=O)O)c1 | 926 |  |  |  | 
CC(C)CNC(=O)c1ccc(-c2ccc(Cc3ccccc3)cc2C(=O)Nc2ccc(C(=N)N)cc2)c(C(=O)O)c1 | 21 | 656 | 26.9 | 8510 | 1750
C=C=Cc1ccc(-c2ccc(C(=O)NCC(C)C)cc2C(=O)O)c(C(=O)Nc2ccc(C(=N)N)cc2)c1 | 9 |  | 59.8 | 28000 | 1500
C=C(C)/C=C\c1ccc(-c2ccc(C(=O)NCC(C)C)cc2C(=O)O)c(C(=O)Nc2ccc(C(=N)N)cc2)c1 | 130 |  |  |  | 310
C=Cc1ccc(-c2ccc(C(=O)NCC(C)C)cc2C(=O)O)c(C(=O)Nc2ccc(C(=N)N)cc2)c1 | 9 |  | 52.2 | 9400 | 1650
CC(C)CNC(=O)c1ccc(-c2ccc(C=CCO)cc2C(=O)Nc2ccc(C(=N)N)cc2)c(C(=O)O)c1 | 52 |  | 34 | 22700 | 6620
CC(C)CNC(=O)c1ccc(-c2ccc(CN)cc2C(=O)Nc2ccc(C(=N)N)cc2)c(C(=O)O)c1 | 1220 |  |  |  | 
CC(C)CNC(=O)c1ccc(-c2ccccc2C(=O)Nc2ccc(C(=N)N)cc2)c(C(=O)O)c1 | 120 |  | 1.5 | 64000 | 103000
CC(C)=CCc1ccc(-c2ccc(C(=O)NCC(C)C)cc2C(=O)O)c(C(=O)Nc2ccc(C(=N)N)cc2)c1 | 45 | 308 | 21.1 | 13000 | 27000
CC(C)CNC(=O)c1ccc(-c2ccc(-c3sccc3CO)cc2C(=O)Nc2ccc(C(=N)N)cc2)c(C(=O)O)c1 | 330 |  | 13.3 | 50000 | 640
CC(C)CNC(=O)c1ccc(-c2ccc(-c3ccc(CO)s3)cc2C(=O)Nc2ccc(C(=N)N)cc2)c(C(=O)O)c1 | 650 |  |  |  | 
CC(C)CNC(=O)c1ccc(-c2ccc(Cc3cccs3)cc2C(=O)Nc2ccc(C(=N)N)cc2)c(C(=O)O)c1 | 11 | 913 | 127 | 42100 | 8150
CC(C)CNC(=O)c1ccc(-c2ccc(-c3cscc3CO)cc2C(=O)Nc2ccc(C(=N)N)cc2)c(C(=O)O)c1 | 9 | 60 | 56.7 | 63100 | 130
CC(C)CNC(=O)c1ccc(-c2ccc(-c3cscc3CN)cc2C(=O)Nc2ccc(C(=N)N)cc2)c(C(=O)O)c1 | 33 | 229 | 54.2 | 110000 | 10
